Laboratory results taken from US9937162B2, “Methods of treating and preventing vascular instability diseases” (THE UNIVERSITY OF UTAH RESEARCH FOUNDATION, priority 2014, dated 2018).

Assays:
Ccm2 ecKO mice = test: Chronic treatment of Ccm2 ecKO mice, CCM lesions quantified by postmortem MRI; assay type: in vivo; conditions: treated from P5 to 5 months of age, tempol 1 mM in drinking water or cholecalciferol-enhanced chow (+25 IU/g D3)
Description: Chronic treatment studies of the effects of tempol and cholecalciferol in inducible endothelial-specific Ccm2 knockout mice (Ccm2^f/−; +/Tg(Pdgfb-iCreER^T2), also referred to herein as Ccm2 ecKO mice or endothelial knockout mice, were performed, inter alia, to evaluate the potential of tempol and/or cholecalciferol administration for the treatment of CCM disease (see Chan A C et al., J Clin Invest 121, 1871-1881 (2011) regarding the Ccm2 ecKO mice). 5 days after birth (P5), Ccm2 ecKO mice litters were assigned to a standard chow (HARLAN 2018, 1.5 IU/g D3), a standard chow plus tempol in drinking water (1 mM), or a cholecalciferol-enhanced chow (HARLAN 2018+25 IU/g D3). The chow was provided to the mother of each litter until the mice were weaned at P21. […]
At 5 months of age, mice were sacrificed by exsanguination (blood was collected for later analysis), and subsequent perfusion with saline and then 4% formaldehyde. […] Lesion area and number were quantified by two blinded reviewers using IMAGEJ and OSIRIX software. […]
The results of both reviewers were tabulated. […] FIG. 1B depicts a normalized number of CCM lesions as measured by MRI in Ccm2 ecKO mice. […] FIG. 1C is a graph depicting the number of lesions of various sizes as measured by MRI in Ccm2 ecKO mice. […]

CDC42 = test: cdc42 activation assay (pulldown, western blot) in HMVEC-D cells; assay type: cell-based; conditions: up to 10 μM, 60 minutes
Description: (§1) The timing of effects of cholecalciferol on the endothelium was assessed by evaluating the effect of knockdown of CCM2, and subsequent treatment with cholecalciferol, on a panel of signaling pathways associated with endothelial instability. The signaling pathways assessed included: ADP-ribosylation factor 6 (ARF6), cell division control protein 42 homolog (CDC42), transforming protein RhoA (RHOA), phosphorylation of myosin light chain (pMLC), Ras-related C3 botulinum toxin substrate 1 (RAC1), and Ras-related protein R-Ras (RRAS) (see Broman M T et al., Circ Res 98, 73-80 (2006); Broman M T et al., Trends Cardiovasc Med 17, 151-156 (2007); Eliceiri B P et al., Mol Cell 4, 915-924 (1999); Sawada J et al., Cancer Cell 22, 235-249 (2012); Weis S et al., J Cell Biol 167, 223-229 (2004); Wojciak-Stothard B et al., Vascul Pharmacol 39, 187-199 (2002); and Zhu W et al., Nature 492, 252-255 (2012)). […]
(§2) For RhoA, ARF6, Rac1/cdc42, and R-Ras activation assays, crude total cell lysate were generated and GTP-RhoA, ARF6, Rac1/cdc42, and R-Ras were precipitated with Rhotekin-RBD (EMD MILLIPORE), GGA3-PBD (CELL BIOLABS), PAK-1-PBD (EMD MILLIPORE), and Raf-1 RBD, respectively. […] RhoA, ARF6, Rac1/cdc42, and R-Ras were detected by western blotting with antibodies (RhoA, Rac1, and R-Ras antibodies were from CELL SIGNALING TECHNOLOGY; ARF6 and cad42 antibodies were from EMD MILLIPORE).

RHOA = test: RhoA activation assay (GTP-RhoA pulldown, western blot) in siCCM2 HMVEC-D cells; assay type: cell-based; conditions: siCCM2 HMVEC-D monolayers, 100 nM or 10 μM, 24 hours
Description: as §1, §2

RAC1 = test: Rac1 activation assay (pulldown, western blot) in HMVEC-D cells; assay type: cell-based; conditions: up to 10 μM, 60 minutes
Description: as §1, §2

pMLC = test: Phosphorylation of myosin light chain (pMLC) in siCCM2 HMVEC-D cells; assay type: cell-based; conditions: siCCM2 HMVEC-D monolayers, 100 nM or 10 μM, 60 minutes
Description: The timing of effects of cholecalciferol on the endothelium was assessed by evaluating the effect of knockdown of CCM2, and subsequent treatment with cholecalciferol, on a panel of signaling pathways associated with endothelial instability. The signaling pathways assessed included: ADP-ribosylation factor 6 (ARF6), cell division control protein 42 homolog (CDC42), transforming protein RhoA (RHOA), phosphorylation of myosin light chain (pMLC), Ras-related C3 botulinum toxin substrate 1 (RAC1), and Ras-related protein R-Ras (RRAS) (see Broman M T et al., Circ Res 98, 73-80 (2006); Broman M T et al., Trends Cardiovasc Med 17, 151-156 (2007); Eliceiri B P et al., Mol Cell 4, 915-924 (1999); Sawada J et al., Cancer Cell 22, 235-249 (2012); Weis S et al., J Cell Biol 167, 223-229 (2004); Wojciak-Stothard B et al., Vascul Pharmacol 39, 187-199 (2002); and Zhu W et al., Nature 492, 252-255 (2012)).
Wild-type, siCTRL, or siCCM2 treated HMVEC-D cells were incubated with either 100 nM or 10 μM cholecalciferol (TOCRIS BIOSCIENCE), 7-DHC (SIGMA-ALDRICH), or vehicle (0.5% DMSO) for 60 minutes (pMLC, ARF6, RAC, CDC42, RRAS) or 24 hours (RHOA), unless otherwise indicated. After treatment, the cells were washed with ice-cold PBS and lysed in 50 mM Tris pH 7.4, 150 mM NaCl, 10 mM MgCl2, 10% glycerol, 1% NP-40, 1× protease inhibitors, and 1× phosphatase inhibitors.

RRAS = test: R-Ras activation assay (pulldown, western blot) in HMVEC-D cells; assay type: cell-based; conditions: up to 10 μM, 60 minutes
Description: as §1, §2

ARF6 = ARF6 activation assay (GTP-ARF6 pulldown, western blot) in siCCM2 HMVEC-D cells; assay type: cell-based
Description: as §1, §2

Compound	number of CCM lesions as measured by MRI, compared to standard chow (Ccm2 ecKO mice)	basal activation of CDC42 (CDC42)	CCM2 knockdown-induced activation of RHOA (RHOA)	basal activation of RAC1 (RAC1)	CCM2 knockdown-induced activation of pMLC (pMLC)	basal activation of RRAS (RRAS)	time to inhibition of ARF6 activation (ARF6; siCCM2 HMVEC-D cells, time course) [min]	CCM2 knockdown-induced activation of ARF6 (ARF6; siCCM2 HMVEC-D monolayers, 100 nM or 10 μM, 60 minutes)
C=C1CC[C@H](O)C/C1=C/C=C1\CCC[C@]2(C)[C@@H]([C@H](C)CCCC(C)C)CC[C@@H]12 [cholecalciferol]	approximately half as many lesions	nor did treatment of up to 10 μM cholecalciferol appear to basally inhibit activation	inhibited	nor did treatment of up to 10 μM cholecalciferol appear to basally inhibit activation	inhibited	nor did treatment of up to 10 μM cholecalciferol appear to basally inhibit activation	≤ 5	inhibited
CC1(C)CC(O)CC(C)(C)N1[O] [tempol, 4-hydroxy-2,2,6,6-tetramethylpiperidine 1-oxyl]	approximately half as many lesions							
